# Assay results from patent publication US12280038B2, “L-pag derivatives for treatment of sleep disordered breathing (SDB)” (priority 2016, dated 2025).
# Like-named read-outs stand apart in the source and are kept apart here.
# Tests used:
# [1] = biological target: T1, cystathionine-γ-lyase (CSE) (Mus musculus, UniProt Q8VCN5); test: In vitro assay of H2S production in mouse liver homogenates (CSE); type: biochemical
# T1 construct: H2S production in an in vitro assay using mouse liver homogenates; from tissue; host or cells: mouse liver homogenate
# Procedure: (§1) FIGS. 10A-10B Effect of CSE inhibitor on H2S production. FIG. 10A depicts a dose-response of L-propargylglycine (L-PAG) on H2S production in an in vitro assay using mouse liver homogenates. FIG. 10B depicts the effect of L-PAG (30 μM) on H2S generation by CSE and CBS in mouse liver homogenates. Data are presented as mean±SEM from 4 independent experiments. **P<0.01; n.s., not significant.
# (§2) The effect of pharmacological CSE blockade on restoration of stable breathing in HO-2 null mice was examined. L-propargylglycine (L-PAG) is an inhibitor of CSE. […] The inhibitory effects of L-PAG were selective to CSE because H2S synthesis by cystathionine-β-synthase was unaffected (FIG. 10 B).
# cystathionine-β-synthase = biological target: T2, cystathionine-β-synthase (Mus musculus, UniProt Q91WT9); test: In vitro assay of H2S production in mouse liver homogenates (CBS); type: biochemical; details: L-PAG 30 μM
# T2 construct: H2S generation by CSE and CBS in mouse liver homogenates; from tissue; host or cells: mouse liver homogenate
# T2 sequence (Q91WT9 1-561): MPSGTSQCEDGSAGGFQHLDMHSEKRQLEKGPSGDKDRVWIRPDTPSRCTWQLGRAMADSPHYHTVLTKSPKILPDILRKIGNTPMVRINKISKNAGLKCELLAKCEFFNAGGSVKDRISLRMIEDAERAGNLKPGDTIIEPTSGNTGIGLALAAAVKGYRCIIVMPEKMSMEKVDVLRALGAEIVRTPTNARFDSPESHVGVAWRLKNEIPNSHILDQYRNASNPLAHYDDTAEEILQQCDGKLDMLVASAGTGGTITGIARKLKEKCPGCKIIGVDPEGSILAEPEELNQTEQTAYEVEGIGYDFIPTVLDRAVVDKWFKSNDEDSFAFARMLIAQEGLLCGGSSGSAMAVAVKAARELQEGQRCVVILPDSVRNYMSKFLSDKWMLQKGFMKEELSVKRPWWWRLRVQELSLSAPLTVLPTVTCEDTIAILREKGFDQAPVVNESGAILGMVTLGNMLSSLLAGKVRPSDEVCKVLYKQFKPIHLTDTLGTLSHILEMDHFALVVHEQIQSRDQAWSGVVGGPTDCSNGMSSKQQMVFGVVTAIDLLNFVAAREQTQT
# Procedure: as §1, §2
# HO-2 null mice [2] = details: any of the doses tested
# Procedure: HO-2 null mice were treated with increasing doses of L-PAG via the intraperitoneal route, and breathing was monitored continuously for 6 hours. […] The anti-apneic effects of L-PAG were further analyzed at 30 mg/kg.
# HO-2 null mice [3] = test: Breathing (apnea, hypoapnea) monitored by whole-body plethysmography in unsedated HO-2 null mice; type: in vivo; details: for ED50: Mus musculus
# Procedure: Experiments were approved by the Institutional Animal Care and Use Committee of the University of Chicago and were performed on age-matched C57/BL6 wild type and HO-2^−/− mice. At the end of the experiment, mice were euthanized by intra-cardiac injection (0.1 mL) of euthanasia solution (Beuthanasia-D Special, Schering-Plough).
# Breathing was continuously monitored under room air from 10:00 AM to 4:00 PM by whole-body plethysmography (emka Technologies, Falls Church, VA) while ambient temperatures were maintained at 25±1° C. Breathing signals were collected and stored with a data acquisition system(emka Technologies, Falls Church, VA; or PowerLab 8/35, AD Instruments, Australia), and scored off-line with commercial software (RemLogic™, Natus). Apneas were scored when there was a complete pause of respiration for the duration of 3 or more breaths. Hypopneas were scored when there was a 30% reduction in tidal volume or signal amplitude, often with an abrupt return to hyperventilation breaths at the end of the event.
# carotid body = test: Ex vivo carotid body sensory nerve response to hypoxia; details: 30 mg/kg, HO-2 null mice
# Procedure: Sensory nerve activity was recorded from ex vivo carotid bodies harvested from anesthetized mice. Briefly, the carotid sinus nerve was treated with collagenase, and several nerve bundles were isolated. Action potentials from one of the nerve bundles were recorded using a suction electrode (˜20-μm-diameter tip). […] Action potentials of similar height, duration, and shape (“single” unit) were selected using Spike histogram software (LabChart 7 Pro) for analysis of the sensory nerve activity. To obtain a stable baseline sensory nerve activity, carotid bodies were first superfused for 1 hour with normoxia-equilibrated medium. Subsequently, baseline sensory nerve activity under normoxia was recorded for 5 min. Sensory nerve responses to hypoxia were monitored for 3 min. The PO2 in the medium was determined by a blood gas analyzer (ABL 5). Hypoxic response was measured as the difference between the sensory nerve activity under baseline and during hypoxia (Δimp/s).
# in vivo = test: in vivo
# Procedure: Comparisons of L-PAG plasma levels with (a) dose-response parameters for L-PAG pharmacologic activity and (b) the kinetics of reversal of this pharmacologic activity, support the conclusion that a threshold plasma drug level of approximately 12 to 15 μg/ml is necessary to sustain anti-apnea action. This threshold plasma drug level is consistent with both (a) the minimal anti-apnea activity of the 10 mg/kg dose of L-PAG and (b) the kinetics of the reversal of anti-apnea activity with time seen at L-PAG doses of 30 mg/kg or higher.
# T1 sequence (Q8VCN5 whole entry): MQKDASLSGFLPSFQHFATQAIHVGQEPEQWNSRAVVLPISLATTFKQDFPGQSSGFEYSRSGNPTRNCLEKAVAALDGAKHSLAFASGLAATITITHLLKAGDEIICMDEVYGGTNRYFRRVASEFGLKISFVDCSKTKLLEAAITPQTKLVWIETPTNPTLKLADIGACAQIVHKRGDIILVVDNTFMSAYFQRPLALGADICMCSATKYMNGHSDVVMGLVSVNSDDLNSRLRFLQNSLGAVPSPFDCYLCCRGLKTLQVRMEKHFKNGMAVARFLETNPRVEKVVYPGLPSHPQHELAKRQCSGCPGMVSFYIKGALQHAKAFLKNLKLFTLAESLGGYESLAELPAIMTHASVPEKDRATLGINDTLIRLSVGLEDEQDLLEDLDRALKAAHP
compound,measurement,setting,value
"C#CC[C@H](N)C(=O)O [L-PAG, L-propargylglycine]",CSE-derived H2S,[1],inhibited
same,H2S synthesis by cystathionine-β-synthase,cystathionine-β-synthase,unaffected
same,mortality,HO-2 null mice [2],no mortality
same,anti-apnea activity at 10 mg/kg dose,HO-2 null mice [3]; 10 mg/kg,minimal
same,hypoapnea index,HO-2 null mice [3]; 30 mg/kg intraperitoneal,reduced by L-PAG and this effect persisted even after 24 hours
same,occurrence of both obstructive and central apnea,HO-2 null mice [3]; 30 mg/kg intraperitoneal,markedly reduced
same,time after administration at which anti-apneic effects were seen,HO-2 null mice [3]; 30 mg/kg intraperitoneal,~2 h
same,time after which apnea returned to pre-injection values,HO-2 null mice [3]; 30 mg/kg intraperitoneal,24 h
same,ED50,"HO-2 null mice [3]; ip, intraperitoneal route, breathing monitored 6 hours, HO-2 null mice, read-out: ED50 for reducing number of apneas and restoring stable breathing",30 mg/kg
same,ED50,"HO-2 null mice [3]; systemic administration, HO2-KO mice, FIG. 11, read-out: ED50 for inhibiting SDB (comparative dose-response)",~30 mg/kg
same,reduction of number of apneas and hypoapnea index after oral administration,"HO-2 null mice [3]; oral 30 mg/kg, compared with intraperitoneal",equally effective
same,carotid body sensitivity to hypoxia,carotid body,markedly reduced
same,bioavailability,in vivo,100%
same,"plasma clearance profiles, oral versus i.p.",in vivo,essentially identical
same,threshold plasma drug level necessary to sustain anti-apnea action,in vivo; mouse,12 to 15 µg/mL
